Measurements taken from ChEMBL document CHEMBL1909046, “DrugMatrix in vitro pharmacology data”.

What was measured:
[1] = DRUGMATRIX: Sigma2 radioligand binding (ligand: [3H] Ifenprodil); format: cell membranes, Rattus norvegicus, Wistar, Brain, Membrane; conditions: Not Active = under 50% inhibition at 10 µM
[2] = biological target: T1, 3-hydroxy-3-methylglutaryl-coenzyme A reductase (Homo sapiens, UniProt P04035); parameters: species or system Escherichia coli;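 also: enzyme inhibition assay of HMG-CoA reductase using radiolabeled [14C]HMG-CoA as substrate; in other assays of this panel Not Active means under 50% inhibition at 10 µM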
T1 sequence (P04035 whole entry): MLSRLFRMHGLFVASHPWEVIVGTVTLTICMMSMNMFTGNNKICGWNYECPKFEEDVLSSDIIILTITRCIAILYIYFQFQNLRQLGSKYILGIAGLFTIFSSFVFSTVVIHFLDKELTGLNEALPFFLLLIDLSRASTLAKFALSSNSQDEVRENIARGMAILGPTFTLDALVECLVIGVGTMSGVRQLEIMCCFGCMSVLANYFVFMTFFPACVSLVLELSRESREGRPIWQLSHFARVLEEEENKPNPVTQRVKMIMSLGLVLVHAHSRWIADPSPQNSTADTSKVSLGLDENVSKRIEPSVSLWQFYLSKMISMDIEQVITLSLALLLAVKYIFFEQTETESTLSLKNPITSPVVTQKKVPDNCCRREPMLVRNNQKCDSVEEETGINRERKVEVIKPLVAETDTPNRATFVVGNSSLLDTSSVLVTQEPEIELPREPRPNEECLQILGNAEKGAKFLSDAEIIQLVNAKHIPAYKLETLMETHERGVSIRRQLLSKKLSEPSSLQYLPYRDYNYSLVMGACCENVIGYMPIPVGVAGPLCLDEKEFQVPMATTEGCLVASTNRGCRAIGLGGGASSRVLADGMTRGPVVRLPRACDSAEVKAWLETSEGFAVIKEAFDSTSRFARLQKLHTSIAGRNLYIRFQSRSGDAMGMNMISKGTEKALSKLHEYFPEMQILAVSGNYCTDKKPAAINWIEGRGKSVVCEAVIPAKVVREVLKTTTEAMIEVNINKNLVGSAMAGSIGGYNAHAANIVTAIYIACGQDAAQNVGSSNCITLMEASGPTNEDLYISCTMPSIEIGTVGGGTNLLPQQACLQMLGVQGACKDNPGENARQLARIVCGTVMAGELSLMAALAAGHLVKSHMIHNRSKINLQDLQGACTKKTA

Insulin receptor = Insulin receptor (Rattus norvegicus, UniProt P15127); format: cell membranes, Wistar, Liver, Membrane; also: in other assays of this panel Not Active means under 50% inhibition at 10 µM
Caspase-1 = biological target: T2, Caspase-1 (Homo sapiens, UniProt P29466); parameters: species or system Escherichia coli;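 also: Caspase-1 enzyme inhibition assay with a peptide substrate; in other assays of this panel Not Active means under 50% inhibition at 10 µM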
T2 sequence (P29466 whole entry): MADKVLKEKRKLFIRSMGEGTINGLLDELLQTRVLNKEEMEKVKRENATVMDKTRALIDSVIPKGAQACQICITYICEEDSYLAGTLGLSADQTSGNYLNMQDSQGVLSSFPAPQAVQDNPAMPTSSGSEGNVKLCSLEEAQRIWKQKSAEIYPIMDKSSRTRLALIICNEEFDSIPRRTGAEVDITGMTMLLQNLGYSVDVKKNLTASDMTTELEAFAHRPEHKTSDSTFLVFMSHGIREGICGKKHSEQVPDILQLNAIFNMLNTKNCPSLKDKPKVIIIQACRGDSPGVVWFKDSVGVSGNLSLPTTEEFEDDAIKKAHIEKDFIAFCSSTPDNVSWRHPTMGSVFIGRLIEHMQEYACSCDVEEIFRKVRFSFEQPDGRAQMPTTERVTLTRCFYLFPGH

Thromboxane-A synthase = biological target: T3, Thromboxane-A synthase (Homo sapiens, UniProt P24557); test: biochemical; format: tissue-based, Platelet; conditions: platelet;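 also: enzyme inhibition assay with PGH2 supplied as substrate; in other assays of this panel Not Active means under 50% inhibition at 10 µM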
T3 sequence (P24557 whole entry): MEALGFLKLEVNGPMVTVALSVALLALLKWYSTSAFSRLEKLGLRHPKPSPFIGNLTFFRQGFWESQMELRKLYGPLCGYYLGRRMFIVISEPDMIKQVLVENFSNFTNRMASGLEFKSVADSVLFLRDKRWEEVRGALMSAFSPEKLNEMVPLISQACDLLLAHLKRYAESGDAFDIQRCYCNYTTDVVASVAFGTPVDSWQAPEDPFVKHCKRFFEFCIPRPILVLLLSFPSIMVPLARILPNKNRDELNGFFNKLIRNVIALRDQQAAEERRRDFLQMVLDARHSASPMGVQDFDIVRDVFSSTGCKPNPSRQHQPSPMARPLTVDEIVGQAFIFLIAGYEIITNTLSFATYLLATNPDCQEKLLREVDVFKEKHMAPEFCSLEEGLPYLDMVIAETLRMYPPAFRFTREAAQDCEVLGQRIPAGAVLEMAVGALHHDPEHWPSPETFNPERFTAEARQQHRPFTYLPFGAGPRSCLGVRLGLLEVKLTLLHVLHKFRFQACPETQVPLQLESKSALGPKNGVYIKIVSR

[3] = biological target: T4, Muscarinic acetylcholine receptor M2 (Homo sapiens, UniProt P08172); format: cell membranes, CHO-K1, Membrane; conditions: cho-k1; also: in other assays of this panel Not Active means under 50% inhibition at 10 µM
T4 sequence (P08172 whole entry): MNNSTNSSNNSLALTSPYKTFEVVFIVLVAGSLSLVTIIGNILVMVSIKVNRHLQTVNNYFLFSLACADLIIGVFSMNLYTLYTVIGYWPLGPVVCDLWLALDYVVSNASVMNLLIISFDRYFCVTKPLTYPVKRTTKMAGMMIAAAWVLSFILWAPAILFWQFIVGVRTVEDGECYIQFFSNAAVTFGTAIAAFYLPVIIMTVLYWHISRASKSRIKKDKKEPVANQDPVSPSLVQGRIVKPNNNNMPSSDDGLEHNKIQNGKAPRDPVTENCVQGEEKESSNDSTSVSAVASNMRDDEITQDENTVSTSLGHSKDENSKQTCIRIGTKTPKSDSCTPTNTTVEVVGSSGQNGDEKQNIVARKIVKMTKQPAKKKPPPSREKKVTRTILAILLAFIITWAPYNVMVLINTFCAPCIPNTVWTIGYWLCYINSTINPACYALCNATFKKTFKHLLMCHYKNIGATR

[4] = DRUGMATRIX: Glutamate, Kainate radioligand binding (ligand: [3H] Kainic acid); format: cell membranes, Rattus norvegicus, Wistar, Brain, Membrane; conditions: Not Active = under 50% inhibition at 10 µM

Insulin receptor, sequence (P15127 27-759 limits assumed): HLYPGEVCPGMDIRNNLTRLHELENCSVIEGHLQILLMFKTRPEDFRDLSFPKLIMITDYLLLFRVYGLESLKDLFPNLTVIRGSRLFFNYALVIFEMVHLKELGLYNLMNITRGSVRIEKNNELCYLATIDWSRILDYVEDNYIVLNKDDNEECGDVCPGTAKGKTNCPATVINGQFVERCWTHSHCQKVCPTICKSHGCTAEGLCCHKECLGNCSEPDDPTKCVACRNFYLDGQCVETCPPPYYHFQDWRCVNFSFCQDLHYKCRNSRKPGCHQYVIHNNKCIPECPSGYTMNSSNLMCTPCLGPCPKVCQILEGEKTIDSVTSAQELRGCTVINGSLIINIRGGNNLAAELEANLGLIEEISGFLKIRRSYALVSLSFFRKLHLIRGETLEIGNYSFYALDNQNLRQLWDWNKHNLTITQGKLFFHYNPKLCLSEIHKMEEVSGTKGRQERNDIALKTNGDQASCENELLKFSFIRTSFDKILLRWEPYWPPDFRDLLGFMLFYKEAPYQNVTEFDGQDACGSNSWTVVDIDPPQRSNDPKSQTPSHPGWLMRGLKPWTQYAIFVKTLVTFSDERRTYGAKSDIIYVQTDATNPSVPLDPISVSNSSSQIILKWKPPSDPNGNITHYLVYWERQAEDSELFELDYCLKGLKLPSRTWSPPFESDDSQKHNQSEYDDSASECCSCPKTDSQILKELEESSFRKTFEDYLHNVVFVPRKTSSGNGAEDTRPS
Insulin receptor, sequence (P15127 764-1383 limits assumed): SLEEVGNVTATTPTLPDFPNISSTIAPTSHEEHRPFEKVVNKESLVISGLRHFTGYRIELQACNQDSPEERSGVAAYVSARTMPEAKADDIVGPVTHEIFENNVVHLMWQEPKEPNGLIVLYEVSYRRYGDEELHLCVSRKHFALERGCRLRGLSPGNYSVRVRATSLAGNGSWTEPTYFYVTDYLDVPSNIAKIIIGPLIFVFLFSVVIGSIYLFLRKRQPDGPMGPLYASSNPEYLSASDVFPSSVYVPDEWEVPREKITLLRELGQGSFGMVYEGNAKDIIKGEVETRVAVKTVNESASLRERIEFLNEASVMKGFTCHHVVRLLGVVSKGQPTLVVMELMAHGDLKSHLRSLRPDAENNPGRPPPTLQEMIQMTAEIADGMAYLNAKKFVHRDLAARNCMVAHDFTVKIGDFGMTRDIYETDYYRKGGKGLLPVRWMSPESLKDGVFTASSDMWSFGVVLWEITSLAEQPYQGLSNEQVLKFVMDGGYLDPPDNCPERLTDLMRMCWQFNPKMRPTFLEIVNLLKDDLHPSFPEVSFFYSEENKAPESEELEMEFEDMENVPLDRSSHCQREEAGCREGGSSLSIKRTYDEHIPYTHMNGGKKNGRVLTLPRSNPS

O=C(O)Cc1ccccc1Nc1c(Cl)cccc1Cl [DICLOFENAC]
Not Active: IC50 [1] | Ki [1] | IC50 [2] | IC50 (Insulin receptor) | IC50 (Caspase-1) | IC50 (Thromboxane-A synthase) | IC50 [3] | IC50 [4] | Ki [4]

COc1ccccc1C(=O)N1CCC(Cc2ccccc2)CC1
Not Active: IC50 [1] | Ki [1] | IC50 [2] | IC50 (Insulin receptor) | IC50 (Caspase-1) | IC50 (Thromboxane-A synthase) | IC50 [3] | IC50 [4] | Ki [4]

CCC1=C[C@@H]2CN(C1)Cc1c([nH]c3ccccc13)[C@@](C(=O)OC)(c1cc3c(cc1OC)N(C)[C@H]1[C@@](O)(C(=O)OC)[C@H](OC(C)=O)[C@]4(CC)C=CCN5CC[C@]31[C@@H]54)C2 [VINORELBINE]
Not Active: IC50 [1] | Ki [1] | IC50 [2] | IC50 (Insulin receptor) | IC50 (Caspase-1) | IC50 (Thromboxane-A synthase) | IC50 [3] | IC50 [4] | Ki [4]

CCOC(=O)[C@H](CCc1ccccc1)N[C@H]1CCc2ccccc2N(CC(=O)O)C1=O [BENAZEPRIL]
Not Active: IC50 [1] | Ki [1] | IC50 [2] | IC50 (Insulin receptor) | IC50 (Caspase-1) | IC50 (Thromboxane-A synthase) | IC50 [3] | IC50 [4] | Ki [4]

CCOC(=O)C(C)(C)Oc1ccc(Cl)cc1 [CLOFIBRATE]
Not Active: IC50 [1] | Ki [1] | IC50 [2] | IC50 (Insulin receptor) | IC50 (Caspase-1) | IC50 (Thromboxane-A synthase) | IC50 [3] | IC50 [4] | Ki [4]

CC(=O)Nc1c(I)c(NC(C)=O)c(I)c(C(=O)O)c1I [DIATRIZOIC ACID]
Not Active: IC50 [1] | Ki [1] | IC50 [2] | IC50 (Insulin receptor) | IC50 (Caspase-1) | IC50 (Thromboxane-A synthase) | IC50 [3] | IC50 [4] | Ki [4]

CCOC(=O)C1=C(C)NC(C)=C(C(=O)OC)C1c1cccc([N+](=O)[O-])c1 (centres undefined) [NITRENDIPINE]
Not Active: IC50 [1] | Ki [1] | IC50 [2] | IC50 (Insulin receptor) | IC50 (Caspase-1) | IC50 (Thromboxane-A synthase) | IC50 [3] | IC50 [4] | Ki [4]

O=C1CC[C@H](N2C(=O)c3ccccc3C2=O)C(=O)N1
Not Active: IC50 [1] | Ki [1] | IC50 [2] | IC50 (Insulin receptor) | IC50 (Caspase-1) | IC50 (Thromboxane-A synthase) | IC50 [3] | IC50 [4] | Ki [4]

C/C=C/C[C@@H](C)[C@@H](O)[C@H]1C(=O)N[C@@H](CC)C(=O)N(C)CC(=O)N(C)[C@@H](CC(C)C)C(=O)N[C@@H](C(C)C)C(=O)N(C)[C@@H](CC(C)C)C(=O)N[C@@H](C)C(=O)N[C@H](C)C(=O)N(C)[C@@H](CC(C)C)C(=O)N(C)[C@@H](CC(C)C)C(=O)N(C)[C@@H](C(C)C)C(=O)N1C [CYCLOSPORINE]
Not Active: IC50 [1] | Ki [1] | IC50 [2] | IC50 (Insulin receptor) | IC50 (Caspase-1) | IC50 (Thromboxane-A synthase) | IC50 [3] | IC50 [4] | Ki [4]

CC(C)Cc1ccc(C(C)C(=O)O)cc1 (centres undefined) [IBUPROFEN]
Not Active: IC50 [1] | Ki [1] | IC50 [2] | IC50 (Insulin receptor) | IC50 (Caspase-1) | IC50 (Thromboxane-A synthase) | IC50 [3] | IC50 [4] | Ki [4]

CCCCN1CCCCC1C(=O)Nc1c(C)cccc1C.Cl (centres undefined) [BUPIVACAINE HYDROCHLORIDE]
Not Active: IC50 [1] | Ki [1] | IC50 [2] | IC50 (Insulin receptor) | IC50 (Caspase-1) | IC50 (Thromboxane-A synthase) | IC50 [3] | IC50 [4] | Ki [4]
